In article PMC12136037, “Type II kinase inhibitors that target Parkinson’s disease–associated LRRK2” (Science Advances, 2025):

How the values were obtained:
Test in all cases: DSF 100 kinase selectivity screen;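 on dTm: compound tested at 20 µM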
Format in all cases: binding
[1] = biological target: T1, ~100 representative kinases (Homo sapiens, UniProt O14733); settings: protein MAP2K7; average of three replicates
T1 construct: Recombinant protein kinase domains with a concentration of 2 μM
T1 sequence (O14733 1-419): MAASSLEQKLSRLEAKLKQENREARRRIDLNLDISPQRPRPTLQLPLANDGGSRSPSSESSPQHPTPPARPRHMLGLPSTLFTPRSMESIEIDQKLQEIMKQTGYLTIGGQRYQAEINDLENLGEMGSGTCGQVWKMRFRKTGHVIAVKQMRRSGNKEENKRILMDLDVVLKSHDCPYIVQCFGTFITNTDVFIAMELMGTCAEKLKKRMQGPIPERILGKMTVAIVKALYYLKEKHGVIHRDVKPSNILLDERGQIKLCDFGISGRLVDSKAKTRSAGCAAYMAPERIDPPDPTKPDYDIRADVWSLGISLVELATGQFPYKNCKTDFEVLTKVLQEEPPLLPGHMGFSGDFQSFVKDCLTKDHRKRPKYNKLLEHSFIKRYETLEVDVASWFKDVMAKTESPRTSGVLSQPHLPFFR
Protocol: (§1) Recombinant protein kinase domains with a concentration of 2 μM were mixed with a 20 μM compound solution in dimethyl sulfoxide (DMSO), 20 mM Hepes (pH 7.5), and 500 mM NaCl. SYPRO Orange (5000×, Invitrogen) was added as a fluorescence probe (1μl/ml). Subsequently, temperature-dependent protein unfolding profiles were measured using the QuantStudio 5 realtime PCR machine (Thermo Fisher Scientific, Waltham, MA, USA). […] The temperature was raised with a step rate of 3°C/min. […] Differences in melting temperature are given as ΔTm values in degrees Celsius. […]

[2] = biological target: T2, ~100 representative kinases (Homo sapiens, UniProt O15075); settings: Protein DCAMKL1; average of three replicates
T2 construct: Recombinant protein kinase domains with a concentration of 2 μM
T2 sequence (O15075 whole entry, the tested form may be a part): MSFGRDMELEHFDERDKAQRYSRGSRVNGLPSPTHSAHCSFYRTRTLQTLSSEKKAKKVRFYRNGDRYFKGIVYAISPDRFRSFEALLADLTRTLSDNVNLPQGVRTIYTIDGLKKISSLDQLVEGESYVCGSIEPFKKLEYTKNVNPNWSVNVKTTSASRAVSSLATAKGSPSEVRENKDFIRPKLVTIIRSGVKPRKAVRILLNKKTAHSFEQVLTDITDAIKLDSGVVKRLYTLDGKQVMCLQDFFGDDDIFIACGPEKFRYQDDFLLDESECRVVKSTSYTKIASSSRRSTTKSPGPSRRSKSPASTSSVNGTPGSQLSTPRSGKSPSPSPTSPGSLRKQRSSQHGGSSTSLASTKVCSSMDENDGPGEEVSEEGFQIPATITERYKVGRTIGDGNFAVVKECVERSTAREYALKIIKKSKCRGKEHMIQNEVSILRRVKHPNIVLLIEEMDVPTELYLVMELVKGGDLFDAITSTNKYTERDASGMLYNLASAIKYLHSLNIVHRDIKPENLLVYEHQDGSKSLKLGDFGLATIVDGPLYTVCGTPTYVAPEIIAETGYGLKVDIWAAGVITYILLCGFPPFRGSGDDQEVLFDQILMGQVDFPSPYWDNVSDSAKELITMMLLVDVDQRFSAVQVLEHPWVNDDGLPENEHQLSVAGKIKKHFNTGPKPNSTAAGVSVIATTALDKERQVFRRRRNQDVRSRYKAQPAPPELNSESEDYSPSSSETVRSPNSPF
Protocol: as §1

[3] = biological target: T3, ~100 representative kinases (Homo sapiens, UniProt O15264); settings: protein MAPK13; average of three replicates
T3 construct: Recombinant protein kinase domains with a concentration of 2 μM
T3 sequence (O15264 1-365): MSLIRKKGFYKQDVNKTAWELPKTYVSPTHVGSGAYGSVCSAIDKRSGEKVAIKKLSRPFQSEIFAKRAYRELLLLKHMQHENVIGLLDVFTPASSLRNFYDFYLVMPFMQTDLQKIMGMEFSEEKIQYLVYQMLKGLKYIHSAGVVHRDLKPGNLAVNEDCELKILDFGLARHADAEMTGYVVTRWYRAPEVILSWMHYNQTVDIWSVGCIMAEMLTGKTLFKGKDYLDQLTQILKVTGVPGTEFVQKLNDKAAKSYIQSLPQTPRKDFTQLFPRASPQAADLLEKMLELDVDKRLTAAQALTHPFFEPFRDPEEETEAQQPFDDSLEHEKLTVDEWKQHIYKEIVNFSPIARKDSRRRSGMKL
Protocol: as §1

[4] = biological target: T4, ~100 representative kinases (Homo sapiens, UniProt O43293); settings: Protein DAPK3; average of three replicates
T4 construct: Recombinant protein kinase domains with a concentration of 2 μM
T4 sequence (O43293 whole entry, the tested form may be a part): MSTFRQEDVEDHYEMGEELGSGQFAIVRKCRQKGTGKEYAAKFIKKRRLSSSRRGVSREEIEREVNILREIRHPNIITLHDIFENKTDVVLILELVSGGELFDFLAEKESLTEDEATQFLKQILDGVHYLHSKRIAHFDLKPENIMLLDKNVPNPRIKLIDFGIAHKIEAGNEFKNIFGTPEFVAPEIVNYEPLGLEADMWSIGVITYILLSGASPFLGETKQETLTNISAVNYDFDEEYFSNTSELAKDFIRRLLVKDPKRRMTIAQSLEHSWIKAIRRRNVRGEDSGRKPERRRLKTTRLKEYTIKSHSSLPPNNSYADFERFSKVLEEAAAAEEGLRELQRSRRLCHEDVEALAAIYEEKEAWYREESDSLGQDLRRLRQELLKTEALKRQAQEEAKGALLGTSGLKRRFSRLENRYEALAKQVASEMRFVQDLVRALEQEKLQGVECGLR
Protocol: as §1

[5] = biological target: T5, ~100 representative kinases (Homo sapiens, UniProt P07332); settings: protein FESA; average of three replicates
T5 construct: Recombinant protein kinase domains with a concentration of 2 μM
T5 sequence (P07332 whole entry, the tested form may be a part): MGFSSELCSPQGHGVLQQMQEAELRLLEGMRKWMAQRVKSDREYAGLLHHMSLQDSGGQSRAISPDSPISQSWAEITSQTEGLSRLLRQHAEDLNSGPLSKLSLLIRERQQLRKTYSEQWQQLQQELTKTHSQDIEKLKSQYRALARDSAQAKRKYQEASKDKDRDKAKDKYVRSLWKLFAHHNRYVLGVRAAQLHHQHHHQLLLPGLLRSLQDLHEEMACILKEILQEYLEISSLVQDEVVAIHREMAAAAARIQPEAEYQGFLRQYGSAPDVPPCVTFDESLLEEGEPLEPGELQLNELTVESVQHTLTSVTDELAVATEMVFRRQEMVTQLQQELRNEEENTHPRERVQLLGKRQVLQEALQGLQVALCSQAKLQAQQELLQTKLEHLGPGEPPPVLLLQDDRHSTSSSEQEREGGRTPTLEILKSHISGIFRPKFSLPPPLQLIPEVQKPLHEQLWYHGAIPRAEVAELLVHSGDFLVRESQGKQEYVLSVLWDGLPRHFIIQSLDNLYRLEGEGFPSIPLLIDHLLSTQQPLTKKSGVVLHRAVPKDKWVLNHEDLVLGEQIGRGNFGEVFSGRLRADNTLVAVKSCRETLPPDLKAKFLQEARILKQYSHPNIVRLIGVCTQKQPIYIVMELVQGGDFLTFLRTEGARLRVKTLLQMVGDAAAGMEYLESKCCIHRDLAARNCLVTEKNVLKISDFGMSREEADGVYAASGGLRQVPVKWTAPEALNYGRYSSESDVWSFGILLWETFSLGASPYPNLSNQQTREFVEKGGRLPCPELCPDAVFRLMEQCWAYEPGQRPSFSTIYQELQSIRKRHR
Protocol: as §1

[6] = biological target: T6, ~100 representative kinases (Homo sapiens, UniProt P45984); settings: protein MAPK9; average of three replicates
T6 construct: Recombinant protein kinase domains with a concentration of 2 μM
T6 sequence (P45984 whole entry, the tested form may be a part): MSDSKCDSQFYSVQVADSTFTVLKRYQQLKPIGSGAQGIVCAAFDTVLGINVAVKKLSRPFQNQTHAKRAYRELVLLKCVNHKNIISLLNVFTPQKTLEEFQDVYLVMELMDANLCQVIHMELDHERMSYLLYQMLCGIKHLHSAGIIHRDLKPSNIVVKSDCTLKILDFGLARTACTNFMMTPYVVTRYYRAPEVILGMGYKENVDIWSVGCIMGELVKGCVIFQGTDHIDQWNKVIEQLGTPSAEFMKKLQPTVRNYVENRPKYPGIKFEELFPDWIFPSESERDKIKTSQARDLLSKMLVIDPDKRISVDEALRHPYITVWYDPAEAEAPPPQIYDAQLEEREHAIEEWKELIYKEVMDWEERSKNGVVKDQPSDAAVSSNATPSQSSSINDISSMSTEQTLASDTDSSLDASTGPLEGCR
Protocol: as §1

[7] = biological target: T7, ~100 representative kinases (Homo sapiens, UniProt P45985); settings: protein MAP2K4; average of three replicates
T7 construct: Recombinant protein kinase domains with a concentration of 2 μM
T7 sequence (P45985 1-399): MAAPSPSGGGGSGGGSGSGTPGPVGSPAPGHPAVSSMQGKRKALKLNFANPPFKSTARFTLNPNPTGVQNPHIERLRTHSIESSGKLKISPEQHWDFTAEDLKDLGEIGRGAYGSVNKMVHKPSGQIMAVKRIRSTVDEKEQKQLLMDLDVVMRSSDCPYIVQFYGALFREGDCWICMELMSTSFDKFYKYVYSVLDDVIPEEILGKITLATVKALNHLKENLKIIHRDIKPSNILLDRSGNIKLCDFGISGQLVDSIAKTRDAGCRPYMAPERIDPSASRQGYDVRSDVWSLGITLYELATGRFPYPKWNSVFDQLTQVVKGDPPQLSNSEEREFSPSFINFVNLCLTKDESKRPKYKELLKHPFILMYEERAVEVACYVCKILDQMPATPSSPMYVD
Protocol: as §1

[8] = biological target: T8, ~100 representative kinases (Homo sapiens, UniProt Q8TF76); settings: protein GSG2; average of three replicates
T8 construct: Recombinant protein kinase domains with a concentration of 2 μM
T8 sequence (Q8TF76 1-798): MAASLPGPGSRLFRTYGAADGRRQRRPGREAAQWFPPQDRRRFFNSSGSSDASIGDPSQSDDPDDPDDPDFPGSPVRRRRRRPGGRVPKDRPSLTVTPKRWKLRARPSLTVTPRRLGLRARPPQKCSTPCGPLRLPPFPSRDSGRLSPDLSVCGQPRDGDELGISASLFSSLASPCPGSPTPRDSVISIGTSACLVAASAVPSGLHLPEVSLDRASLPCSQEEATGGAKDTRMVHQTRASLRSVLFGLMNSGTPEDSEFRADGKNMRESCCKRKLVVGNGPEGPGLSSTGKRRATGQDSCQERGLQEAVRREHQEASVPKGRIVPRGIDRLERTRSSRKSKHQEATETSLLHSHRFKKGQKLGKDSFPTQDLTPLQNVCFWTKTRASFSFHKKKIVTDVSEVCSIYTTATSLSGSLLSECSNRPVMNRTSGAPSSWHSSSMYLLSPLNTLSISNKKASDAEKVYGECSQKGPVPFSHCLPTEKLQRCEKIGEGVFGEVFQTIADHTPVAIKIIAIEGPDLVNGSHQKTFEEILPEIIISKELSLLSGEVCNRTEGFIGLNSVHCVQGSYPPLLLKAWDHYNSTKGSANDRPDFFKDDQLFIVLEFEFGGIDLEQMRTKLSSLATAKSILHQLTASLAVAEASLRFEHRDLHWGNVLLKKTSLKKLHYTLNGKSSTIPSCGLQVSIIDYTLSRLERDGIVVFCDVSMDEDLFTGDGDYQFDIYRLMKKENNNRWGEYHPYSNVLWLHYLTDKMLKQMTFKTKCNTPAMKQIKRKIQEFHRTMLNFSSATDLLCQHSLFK
Protocol: as §1

[9] = biological target: T9, ~100 representative kinases (Homo sapiens, UniProt Q9H2X6); settings: protein HIPK2; average of three replicates
T9 construct: Recombinant protein kinase domains with a concentration of 2 μM
T9 sequence (Q9H2X6 whole entry, the tested form may be a part): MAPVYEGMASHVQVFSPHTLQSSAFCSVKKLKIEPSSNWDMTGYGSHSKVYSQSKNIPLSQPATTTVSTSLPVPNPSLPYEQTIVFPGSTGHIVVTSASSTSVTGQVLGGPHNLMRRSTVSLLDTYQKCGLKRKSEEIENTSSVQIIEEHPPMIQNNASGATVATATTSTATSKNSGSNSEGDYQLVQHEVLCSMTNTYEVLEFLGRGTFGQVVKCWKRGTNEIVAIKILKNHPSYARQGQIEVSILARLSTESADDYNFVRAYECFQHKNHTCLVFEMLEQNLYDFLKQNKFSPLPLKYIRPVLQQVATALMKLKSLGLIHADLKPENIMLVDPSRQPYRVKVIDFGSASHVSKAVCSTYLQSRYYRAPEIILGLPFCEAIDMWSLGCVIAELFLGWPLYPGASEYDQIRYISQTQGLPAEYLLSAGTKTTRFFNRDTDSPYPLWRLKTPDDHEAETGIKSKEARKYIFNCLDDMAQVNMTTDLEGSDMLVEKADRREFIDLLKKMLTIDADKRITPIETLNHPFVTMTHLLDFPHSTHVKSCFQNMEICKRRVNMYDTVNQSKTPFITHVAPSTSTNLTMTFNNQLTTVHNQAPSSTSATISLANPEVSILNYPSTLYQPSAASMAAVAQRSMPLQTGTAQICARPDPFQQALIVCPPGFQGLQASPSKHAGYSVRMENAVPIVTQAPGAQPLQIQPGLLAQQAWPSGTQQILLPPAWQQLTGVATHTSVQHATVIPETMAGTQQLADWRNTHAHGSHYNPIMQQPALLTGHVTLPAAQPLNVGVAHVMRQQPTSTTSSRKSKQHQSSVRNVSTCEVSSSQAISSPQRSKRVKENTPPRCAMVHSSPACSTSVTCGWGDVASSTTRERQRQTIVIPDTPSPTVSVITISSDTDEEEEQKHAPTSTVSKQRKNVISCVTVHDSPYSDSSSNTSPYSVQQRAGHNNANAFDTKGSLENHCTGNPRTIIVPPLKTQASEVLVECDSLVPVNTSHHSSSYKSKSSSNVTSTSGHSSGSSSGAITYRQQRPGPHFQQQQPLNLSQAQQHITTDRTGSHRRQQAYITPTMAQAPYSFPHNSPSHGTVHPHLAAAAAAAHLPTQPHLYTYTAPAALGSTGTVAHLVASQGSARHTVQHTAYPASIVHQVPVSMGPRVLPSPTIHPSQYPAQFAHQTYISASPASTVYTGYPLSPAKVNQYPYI
Protocol: as §1

[10] = biological target: T10, ~100 representative kinases (Homo sapiens, UniProt Q9NSY1); settings: Protein BMP2K; average of three replicates
T10 construct: Recombinant protein kinase domains with a concentration of 2 μM
T10 sequence (Q9NSY1 whole entry, the tested form may be a part): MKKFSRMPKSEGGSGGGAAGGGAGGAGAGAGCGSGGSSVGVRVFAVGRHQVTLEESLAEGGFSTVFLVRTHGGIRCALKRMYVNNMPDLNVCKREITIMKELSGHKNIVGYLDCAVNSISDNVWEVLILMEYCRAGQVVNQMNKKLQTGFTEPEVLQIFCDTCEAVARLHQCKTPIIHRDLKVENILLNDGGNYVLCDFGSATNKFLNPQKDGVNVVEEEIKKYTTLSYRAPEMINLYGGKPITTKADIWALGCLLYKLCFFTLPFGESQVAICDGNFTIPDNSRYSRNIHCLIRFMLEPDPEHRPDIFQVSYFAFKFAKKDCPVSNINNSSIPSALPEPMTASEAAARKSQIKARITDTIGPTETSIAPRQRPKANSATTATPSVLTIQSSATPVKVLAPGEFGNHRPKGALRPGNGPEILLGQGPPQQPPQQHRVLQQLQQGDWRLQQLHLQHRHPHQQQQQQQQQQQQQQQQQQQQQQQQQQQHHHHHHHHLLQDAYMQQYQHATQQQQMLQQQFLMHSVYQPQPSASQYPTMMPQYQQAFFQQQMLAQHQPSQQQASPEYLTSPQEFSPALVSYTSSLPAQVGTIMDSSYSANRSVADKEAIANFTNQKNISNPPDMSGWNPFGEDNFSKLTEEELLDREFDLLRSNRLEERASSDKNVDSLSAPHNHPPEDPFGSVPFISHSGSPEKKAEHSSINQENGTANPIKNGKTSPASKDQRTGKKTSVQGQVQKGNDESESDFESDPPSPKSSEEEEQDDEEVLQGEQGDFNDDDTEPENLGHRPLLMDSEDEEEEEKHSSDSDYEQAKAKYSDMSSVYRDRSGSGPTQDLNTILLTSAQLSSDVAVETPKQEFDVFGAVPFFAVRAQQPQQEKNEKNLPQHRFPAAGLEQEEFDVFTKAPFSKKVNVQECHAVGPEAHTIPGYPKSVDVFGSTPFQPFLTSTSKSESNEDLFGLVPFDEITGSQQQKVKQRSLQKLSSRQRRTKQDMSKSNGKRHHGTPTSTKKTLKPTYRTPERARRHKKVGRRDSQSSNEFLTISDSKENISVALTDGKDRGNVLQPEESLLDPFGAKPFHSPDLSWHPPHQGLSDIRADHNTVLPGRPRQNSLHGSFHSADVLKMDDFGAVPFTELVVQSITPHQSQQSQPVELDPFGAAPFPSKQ
Protocol: as §1

[11] = test system: ~100 representative kinases; settings: for dTm: Protein BRD, average of three replicates; for # >5K: number of proteins of the DSF panel with dTm >5K
Protocol: as §1

[12] = selectivity score: # >5K divided by # of proteins tested in the DSF panel
[13] = number of kinases with thermal shift >5 K divided by total number of kinases screened

Structure (SMILES)	dTm [1] [K]	dTm [2] [K]	dTm [3] [K]	dTm [4] [K]	dTm [5] [K]	dTm [6] [K]	dTm [7] [K]	dTm [8] [K]	dTm [9] [K]	dTm [10] [K]	dTm [11] [K]	# >5K [11]	S(5K) [11, 12]	S(5K) [11, 13]
Cn1cc(-c2c[nH]c3ncnc(N4CCOCC4)c23)cc1C#N [PFE-360]	0.37	0.62	0.70	1.10	0.78	0.17	1.90	2.32	0.25	14.15	-0.51	12	0.118	
Cc1ccc(C(=O)Nc2ccc(CN3CCN(C)CC3)c(C(F)(F)F)c2)cc1C#Cc1c[nH]c2ncnc(N3CCOCC3)c12 [Compound 1]	4.67	-0.0556	4.74	0.53	3.82	5.51	7.64	0.98	4.31	7.81	0.03	21	0.200	0.20
O=C(Nc1cccc(-c2c[nH]c3ncnc(N4CCOCC4)c23)c1)C1(C(=O)Nc2ccc(F)c(F)c2)CC1 [Compound 17]	4.27	1.90	9.50	8.69	5.87	2.95	5.80	-3.87	9.54	7.72	0.26	32	0.320	0.32

Now from value to compound:

dTm [1] [K]	dTm [2] [K]	dTm [3] [K]	dTm [4] [K]	dTm [5] [K]	dTm [6] [K]	dTm [7] [K]	dTm [8] [K]	dTm [9] [K]	dTm [10] [K]	dTm [11] [K]	# >5K [11]	S(5K) [11, 12]	S(5K) [11, 13]	Structure (SMILES)
4.93	4.80	11.96	8.34	6.49	5.82	6.16	-2.45	2.50	8.80	1.82	32	0.308	0.31	O=C(Nc1cccc(-c2c[nH]c3ncnc(N4CCOCC4)c23)c1)C1(C(=O)Nc2ccc(F)c(Br)c2)CC1 [Compound 19]
5.31	2.29	13.05	10.09	7.60	6.61	7.49	-3.30	11.54	8.74	-0.20	42	0.420	0.42	Cc1cc(NC(=O)C2(C(=O)Nc3cccc(-c4c[nH]c5ncnc(N6CCOCC6)c45)c3)CC2)ccc1F [Compound 20]
